Test results taken from ChEMBL document CHEMBL1944604, “Aminopurine based JNK inhibitors for the prevention of ischemia reperfusion injury” (Bioorg Med Chem Lett, 2012).

Columns and labels:
[1] = Metabolic stability of the compound in mouse liver microsomes assessed as compound remaining at 3 uM after 30 mins; assay type: ADME, Microsome; settings: read-out: Stability
[2] = Metabolic stability of the compound in dog liver microsomes assessed as compound remaining at 3 uM after 30 mins; assay type: ADME, Canis lupus familiaris, Microsome; settings: read-out: Stability
[3] = target: Mitogen-activated protein kinase 9 (Homo sapiens, UniProt P45984); test: Inhibition of full length Hexa-His-tagged JNK2 using GST-tagged cJun and [gamma33P]ATP as substrate after 60 mins by scintillation counting
Chain of Mitogen-activated protein kinase 9 (P45984 whole entry): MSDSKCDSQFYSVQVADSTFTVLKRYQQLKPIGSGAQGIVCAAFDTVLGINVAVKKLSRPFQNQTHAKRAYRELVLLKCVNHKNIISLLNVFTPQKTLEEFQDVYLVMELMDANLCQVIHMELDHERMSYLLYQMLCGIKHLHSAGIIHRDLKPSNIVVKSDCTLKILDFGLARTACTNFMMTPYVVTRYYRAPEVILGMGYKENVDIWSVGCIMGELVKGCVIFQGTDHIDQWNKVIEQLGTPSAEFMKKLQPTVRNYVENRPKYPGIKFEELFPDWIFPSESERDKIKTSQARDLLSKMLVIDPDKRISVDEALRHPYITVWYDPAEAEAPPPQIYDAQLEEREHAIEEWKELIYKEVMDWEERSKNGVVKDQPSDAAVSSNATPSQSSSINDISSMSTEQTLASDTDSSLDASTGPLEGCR

[4] = target: Mitogen-activated protein kinase 10 (Homo sapiens, UniProt P53779); test: Inhibition of full length Hexa-His-tagged JNK3 using GST-tagged cJun and [gamma33P]ATP as substrate after 60 mins by scintillation counting
Chain of Mitogen-activated protein kinase 10 (P53779 whole entry): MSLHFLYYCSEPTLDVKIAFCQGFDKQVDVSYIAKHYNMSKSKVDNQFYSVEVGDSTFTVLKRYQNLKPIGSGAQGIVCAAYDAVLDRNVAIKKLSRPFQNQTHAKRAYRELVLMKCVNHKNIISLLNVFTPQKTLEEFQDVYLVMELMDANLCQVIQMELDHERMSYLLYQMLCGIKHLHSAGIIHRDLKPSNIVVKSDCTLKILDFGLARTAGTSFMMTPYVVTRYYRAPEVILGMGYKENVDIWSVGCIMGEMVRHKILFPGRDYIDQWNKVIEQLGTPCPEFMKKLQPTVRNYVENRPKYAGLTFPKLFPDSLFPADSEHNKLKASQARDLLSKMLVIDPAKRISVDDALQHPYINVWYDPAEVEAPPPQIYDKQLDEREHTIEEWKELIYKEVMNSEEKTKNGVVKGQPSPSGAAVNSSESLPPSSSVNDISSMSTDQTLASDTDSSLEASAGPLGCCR

[5] = Clearance in rat at 2 to 10 mg/kg, iv; assay type: ADME, organism-based; design: dose 2-10 mg/kg, route intravenous; settings: in vivo
[6] = Volume of distribution at steady state in rat at 2 to 10 mg/kg, iv; assay type: ADME, organism-based; design: dose 2-10 mg/kg, route intravenous; settings: in vivo, read-out: Vdss
[7] = tested on: Mus musculus; test: Hepatoprotective activity in BALB/c mouse assessed as inhibition of concanavalin A-induced ALT elevation at 30 mg/kg, ip administered 1 hr prior Con A challenge; assay type: functional; settings: route intraperitoneal
[8] = tested on: Mus musculus; test: Hepatoprotective activity in BALB/c mouse assessed as inhibition of concanavalin A-induced ALT elevation at 60 mg/kg, ip administered 1 hr prior Con A challenge; assay type: functional; settings: route intraperitoneal
[9] = AUC in rat at 2 to 10 mg/kg, iv bolus; assay type: ADME, organism-based; design: dose 2-10 mg/kg, route intravenous; settings: plasma
[10] = Clearance in rat at 10 mg/kg, iv infusion; assay type: ADME, organism-based; design: dose 10 mg/kg, route intravenous; settings: in vivo
[11] = Volume of distribution at steady state in rat at 10 mg/kg, iv infusion; assay type: ADME, organism-based; design: dose 10 mg/kg, route intravenous; settings: in vivo, read-out: Vdss
[12] = AUC in cynomolgus monkey at 1 mg/kg, iv bolus; assay type: ADME, organism-based, Macaca fascicularis; design: dose 1 mg/kg, route intravenous; settings: plasma
[13] = Mean residence time in cynomolgus monkey at 1 mg/kg, iv bolus; assay type: ADME, organism-based, Macaca fascicularis; design: dose 1 mg/kg, route intravenous; settings: in vivo
[14] = target: Cytochrome P450 2C19 (Homo sapiens, UniProt P33261); test: Inhibition of recombinant CYP2C19 up to 30 uM; assay type: ADME; settings: recombinant enzyme
Chain of Cytochrome P450 2C19 (P33261 whole entry): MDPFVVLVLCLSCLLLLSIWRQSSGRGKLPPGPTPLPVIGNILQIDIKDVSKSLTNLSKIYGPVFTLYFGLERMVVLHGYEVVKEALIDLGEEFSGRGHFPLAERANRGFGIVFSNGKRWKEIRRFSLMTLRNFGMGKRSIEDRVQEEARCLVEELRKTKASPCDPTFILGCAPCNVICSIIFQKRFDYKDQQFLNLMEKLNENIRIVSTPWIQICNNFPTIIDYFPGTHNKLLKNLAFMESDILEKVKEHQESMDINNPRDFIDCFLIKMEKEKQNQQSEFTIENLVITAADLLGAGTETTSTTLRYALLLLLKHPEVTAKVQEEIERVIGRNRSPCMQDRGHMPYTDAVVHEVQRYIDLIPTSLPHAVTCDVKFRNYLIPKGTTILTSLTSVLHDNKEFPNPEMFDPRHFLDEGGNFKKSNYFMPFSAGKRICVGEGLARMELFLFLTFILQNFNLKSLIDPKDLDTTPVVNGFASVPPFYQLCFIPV

[15] = tested on: Hepatocyte; test: Drug metabolism in rat hepatocytes after 60 mins; assay type: ADME, cell-based; settings: 1 h
[16] = tested on: Hepatocyte; test: Drug metabolism in human hepatocytes after 60 mins; assay type: ADME, cell-based; settings: 1 h
[17] = tested on: Plasma; test: Drug metabolism in rat plasma at 2 mg/kg after 60 mins; assay type: ADME, organism-based; design: dose 2 mg/kg; settings: in vivo, 1 h

Structure (SMILES): N[C@H]1CC[C@H](Nc2ncc3nc(Nc4ccc(F)cc4F)n(C4CCCC4)c3n2)CC1
- remaining at 0.5 h, 3 µM [1]: 100%
- remaining at 0.5 h, 3 µM [2]: 100%
- IC50 [3]: 25 nM
- IC50 [4]: 24 nM
- clearance [5]: 66 mL/min/kg
- Vd [6]: 75 L/kg
- inhibition in vivo at 30 mg/kg [7]: 41%
- inhibition in vivo at 60 mg/kg [8]: 98%
- AUC [9]: 4.7 µM·h
- clearance [10]: 83 mL/min/kg
- Vd [11]: 55 L/kg
- AUC [12]: 7 µM·h
- MRT [13]: 40 h
- inhibition (INH) [14]: Not Active
- Drug metabolism [15]: Not Active
- Drug metabolism [16]: Not Active
- Drug metabolism [17]: Not Active
